Data: PubChem BioAssay (NCI)
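GI50 is the concentration that inhibits growth by half. TGI marks complete inhibition of growth.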

Columns and labels:
Test in all cases: NCI-60 cell line screen, 384-well format
[1] = test system: 786-0 renal
[2] = test system: A498 renal
[3] = test system: A549 NSCLC
[4] = test system: ACHN renal
[5] = test system: BT-549 breast
[6] = test system: CAKI-1 renal
[7] = test system: CCRF-CEM leukemia
[8] = test system: COLO 205 colon
[9] = test system: DU-145 prostate
[10] = test system: EKVX NSCLC
[11] = test system: HCC-2998 colon
[12] = test system: HCT-116 colon
[13] = test system: HCT-15 colon
[14] = test system: HL-60(TB) leukemia
[15] = test system: HOP-62 NSCLC
[16] = test system: HOP-92 NSCLC
[17] = test system: HS 578T breast
[18] = test system: HT29 colon
[19] = test system: IGROV1 ovarian
[20] = test system: K-562 leukemia
[21] = test system: KM12 colon
[22] = test system: LOX IMVI melanoma
[23] = test system: M14 melanoma
[24] = test system: MALME-3M melanoma
[25] = test system: MCF7 breast
[26] = test system: MDA-MB-231 breast
[27] = test system: MDA-MB-435 melanoma
[28] = test system: MDA-MB-468 breast
[29] = test system: MOLT-4 leukemia
[30] = test system: NCI-H226 lung
[31] = test system: NCI-H23 lung
[32] = test system: NCI-H322M lung
[33] = test system: NCI-H460 NSCLC
[34] = test system: NCI-H522 lung
[35] = test system: NCI/ADR-RES ovarian
[36] = test system: OVCAR-3 ovarian
[37] = test system: OVCAR-4 ovarian
[38] = test system: OVCAR-5 ovarian
[39] = test system: OVCAR-8 ovarian
[40] = test system: PC-3 prostate
[41] = test system: RPMI-8226 leukemia
[42] = test system: RXF 393 renal
[43] = test system: SF-268 CNS
[44] = test system: SF-295 CNS
[45] = test system: SF-539 CNS
[46] = test system: SK-MEL-28 melanoma
[47] = test system: SK-MEL-5 melanoma
[48] = test system: SK-OV-3 ovarian
[49] = test system: SN12C renal
[50] = test system: SNB-19 CNS
[51] = test system: SNB-75 CNS
[52] = test system: SR leukemia
[53] = test system: SW-620 colon
[54] = test system: T-47D breast
[55] = test system: TK-10 renal
[56] = test system: U251 glioblastoma
[57] = test system: UACC-257 melanoma
[58] = test system: UACC-62 melanoma
[59] = test system: UO-31 renal

Q: What does the source list for Cc1c(C(=O)Nc2ccc(Oc3ccnc4cc(OCC(C)(C)O)ccc34)c(F)c2)c(=O)n(-c2ccccc2)n1C?
A: GI50 [1]: 5.8 µM; TGI [1]: 96.9 µM; GI50 [2]: 3.58 µM; TGI [2]: > 37.7 µM; GI50 [3]: 4.26 µM; TGI [3]: > 100 µM; GI50 [4]: 3.39 µM; TGI [4]: > 100 µM; GI50 [5]: > 23.7 µM; TGI [5]: > 65.3 µM; GI50 [6]: 0.963 µM; TGI [6]: > 39 µM; GI50 [7]: 2.61 µM; TGI [7]: 7.97 µM; GI50 [8]: 2.26 µM; TGI [8]: 6.93 µM; GI50 [9]: 6.27 µM; TGI [9]: > 100 µM; GI50 [10]: 2.61 µM; TGI [10]: 8.53 µM; GI50 [11]: > 31.1 µM; TGI [11]: > 100 µM; GI50 [12]: 3.97 µM; TGI [12]: > 100 µM; GI50 [13]: 4.13 µM; TGI [13]: > 69.6 µM; GI50 [14]: 3.5 µM; TGI [14]: 6.78 µM; GI50 [15]: 2.34 µM; TGI [15]: > 22.5 µM; GI50 [16]: 2.36 µM; TGI [16]: > 25.8 µM; GI50 [17]: 1.86 µM; TGI [17]: 4.85 µM; GI50 [18]: 2.55 µM; TGI [18]: > 100 µM; GI50 [19]: 4.3 µM; TGI [19]: > 100 µM; GI50 [20]: 0.152 µM; TGI [20]: 0.391 µM; GI50 [21]: 0.258 µM; TGI [21]: > 100 µM; GI50 [22]: 2.65 µM; TGI [22]: > 44 µM; GI50 [23]: 2.68 µM; TGI [23]: > 22.7 µM; GI50 [24]: 2.11 µM; TGI [24]: 5.14 µM; GI50 [25]: 3.5 µM; TGI [25]: > 38.9 µM; GI50 [26]: 3.26 µM; TGI [26]: > 30.4 µM; GI50 [27]: 3.31 µM; TGI [27]: > 31.4 µM; GI50 [28]: 1.62 µM; TGI [28]: 4.86 µM; GI50 [29]: 1.46 µM; TGI [29]: 3.66 µM; GI50 [30]: 1.93 µM; TGI [30]: 7.08 µM; GI50 [31]: 1.52 µM; TGI [31]: 7.35 µM; GI50 [32]: 3.34 µM; TGI [32]: 21.8 µM; GI50 [33]: 2.62 µM; TGI [33]: 6.33 µM; GI50 [34]: 3.74 µM; TGI [34]: > 36.9 µM; GI50 [35]: 4.13 µM; TGI [35]: > 44.1 µM; GI50 [36]: 4.83 µM; TGI [36]: > 100 µM; GI50 [37]: 4.8 µM; TGI [37]: > 100 µM; GI50 [38]: 3.04 µM; TGI [38]: > 100 µM; GI50 [39]: 3.69 µM; TGI [39]: > 88.7 µM; GI50 [40]: 3.76 µM; TGI [40]: > 100 µM; GI50 [41]: 3.03 µM; TGI [41]: 7.45 µM; GI50 [42]: 1.66 µM; TGI [42]: 4.11 µM; GI50 [43]: 3.23 µM; TGI [43]: > 19.7 µM; GI50 [44]: 1.37 µM; TGI [44]: > 23.6 µM; GI50 [45]: 3.68 µM; TGI [45]: > 100 µM; GI50 [46]: 3.58 µM; TGI [46]: > 30.3 µM; GI50 [47]: 1.89 µM; TGI [47]: 4.77 µM; GI50 [48]: 3.51 µM; TGI [48]: > 50.8 µM; GI50 [49]: 0.484 µM; TGI [49]: 4.82 µM; GI50 [50]: 4.78 µM; TGI [50]: > 100 µM; GI50 [51]: 2.68 µM; TGI [51]: > 28.1 µM; GI50 [52]: 2 µM; TGI [52]: 3.82 µM; GI50 [53]: 4.53 µM; TGI [53]: > 100 µM; GI50 [54]: 1.57 µM; TGI [54]: 4.72 µM; GI50 [55]: 5.2 µM; TGI [55]: > 100 µM; GI50 [56]: 4.93 µM; TGI [56]: > 100 µM; GI50 [57]: 3.24 µM; TGI [57]: 22 µM; GI50 [58]: 1.41 µM; TGI [58]: 4.21 µM; GI50 [59]: 4.31 µM; TGI [59]: > 100 µM
